Reference: ChEMBL document CHEMBL1201862, “PubChem BioAssay data set” (2004)
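A five-concentration, 48-hour dose response in 96-well plates underlies each endpoint, interpolated linearly between surrounding concentrations. At the GI50, growth is halved.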 Calls of active or inactive are those of the source. Rule as the data show it: active = GI50 up to about 1.1 µM and inactive = higher.

Tests used:
Assay in all cases: NCI tumour cell line growth inhibition, 48 h
KM-20L2 = tested on: KM-20L2
DLD-1 = tested on: DLD-1
HCT-15 = tested on: HCT-15
OVCAR-4 = tested on: OVCAR-4
TK-10 = tested on: TK-10
LOX IMVI = tested on: LOX IMVI
HCT-116 = tested on: HCT-116
HCC 2998 = tested on: HCC 2998
M19-MEL = tested on: M19-MEL
HOP-92 = tested on: HOP-92
A549 = tested on: A549
NCI-H23 = tested on: NCI-H23
SF-295 = tested on: SF-295
LXFL 529 = tested on: LXFL 529
SK-MEL-5 = tested on: SK-MEL-5
DMS-273 = tested on: DMS-273
CAKI-1 = tested on: CAKI-1
HT-29 = tested on: HT-29
ACHN = tested on: ACHN
786-0 = tested on: 786-0
SN12C = tested on: SN12C
NCI-H522 = tested on: NCI-H522
SW-620 = tested on: SW-620
IGROV-1 = tested on: IGROV-1
HOP-62 = tested on: HOP-62
SK-MEL-28 = tested on: SK-MEL-28
UACC-257 = tested on: UACC-257
SNB-19 = tested on: SNB-19
EKVX = tested on: EKVX
SF-268 = tested on: SF-268
KM12 = tested on: KM12
U-251 = tested on: U-251
SK-MEL-2 = tested on: SK-MEL-2
OVCAR-3 = tested on: OVCAR-3
UO-31 = tested on: UO-31
M14 = tested on: M14
NCI-H460 = tested on: NCI-H460
SF-539 = tested on: SF-539
UACC-62 = tested on: UACC-62
OVCAR-8 = tested on: OVCAR-8
CCRF-CEM = tested on: CCRF-CEM
DMS-114 = tested on: DMS-114
SR = tested on: SR
SNB-75 = tested on: SNB-75
RXF 393 = tested on: RXF 393
HL-60 = tested on: HL-60
RPMI-8226 = tested on: RPMI-8226
SK-OV-3 = tested on: SK-OV-3
K562 = tested on: K562
MOLT-4 = tested on: MOLT-4
Malme-3M = tested on: Malme-3M
A498 = tested on: A498

CCN(CC)C(=O)c1ccc(C)c(/N=N/N(C)C)c1
GI50 (KM-20L2): > 10 µM (inactive)
GI50 (DLD-1): > 100 µM (inactive)
GI50 (HCT-15): > 100 µM
GI50 (OVCAR-4): > 100 µM (inactive)
GI50 (TK-10): > 100 µM (inactive)
GI50 (LOX IMVI): > 100 µM (inactive)
GI50 (HCT-116): > 100 µM (inactive)
GI50 (HCC 2998): > 100 µM (inactive)
GI50 (M19-MEL): > 100 µM (inactive)
GI50 (HOP-92): > 100 µM (inactive)
GI50 (A549): > 100 µM (inactive)
GI50 (NCI-H23): > 100 µM (inactive)
GI50 (SF-295): > 100 µM (inactive)
GI50 (LXFL 529): > 100 µM (inactive)
GI50 (SK-MEL-5): > 100 µM (inactive)
GI50 (DMS-273): > 100 µM (inactive)
GI50 (CAKI-1): > 100 µM (inactive)
GI50 (HT-29): > 100 µM (inactive)
GI50 (ACHN): > 100 µM (inactive)
GI50 (786-0): > 100 µM (inactive)
GI50 (SN12C): > 100 µM (inactive)
GI50 (NCI-H522): 44 µM (inactive)
GI50 (SW-620): > 100 µM (inactive)
GI50 (IGROV-1): > 100 µM (inactive)
GI50 (HOP-62): > 100 µM (inactive)
GI50 (SK-MEL-28): > 100 µM (inactive)
GI50 (UACC-257): > 100 µM (inactive)
GI50 (SNB-19): > 100 µM (inactive)
GI50 (EKVX): > 100 µM (inactive)
GI50 (SF-268): > 100 µM (inactive)
GI50 (KM12): > 100 µM (inactive)
GI50 (U-251): > 100 µM (inactive)
GI50 (SK-MEL-2): > 100 µM (inactive)
GI50 (OVCAR-3): > 100 µM (inactive)
GI50 (UO-31): > 100 µM (inactive)
GI50 (M14): > 100 µM (inactive)
GI50 (NCI-H460): > 100 µM (inactive)
GI50 (SF-539): > 100 µM (inactive)
GI50 (UACC-62): > 100 µM (inactive)
GI50 (OVCAR-8): > 100 µM (inactive)

CC(=O)Oc1c2c(c(OC(C)=O)c3c1n(C(C)=O)c1ccccc1n3C(C)=O)n(C(C)=O)c1ccccc1n2C(C)=O
GI50 (DLD-1): 3.04 µM (inactive)
GI50 (HCT-15): 3.27 µM
GI50 (OVCAR-4): 16.9 µM (inactive)
GI50 (CCRF-CEM): 2.5 µM (inactive)
GI50 (DMS-114): 2.59 µM (inactive)
GI50 (LOX IMVI): 2.56 µM (inactive)
GI50 (SR): 2.62 µM (inactive)
GI50 (HCT-116): 1.95 µM (inactive)
GI50 (HCC 2998): 3.67 µM (inactive)
GI50 (M19-MEL): 1.95 µM (inactive)
GI50 (SNB-75): 11.5 µM (inactive)
GI50 (RXF 393): 8.38 µM (inactive)
GI50 (A549): 6.22 µM (inactive)
GI50 (NCI-H23): 8.24 µM (inactive)
GI50 (SF-295): 8.81 µM (inactive)
GI50 (LXFL 529): 2.74 µM (inactive)
GI50 (SK-MEL-5): 7.76 µM (inactive)
GI50 (HL-60): 2.67 µM (inactive)
GI50 (RPMI-8226): 2.48 µM (inactive)
GI50 (SK-OV-3): 23.6 µM (inactive)
GI50 (DMS-273): 3.24 µM (inactive)
GI50 (CAKI-1): 10.9 µM (inactive)
GI50 (HT-29): 3.18 µM (inactive)
GI50 (ACHN): 9.16 µM (inactive)
GI50 (K562): 2.86 µM (inactive)
GI50 (786-0): 3.46 µM (inactive)
GI50 (SN12C): 3.27 µM (inactive)
GI50 (NCI-H522): 2.3 µM (inactive)
GI50 (SW-620): 1.94 µM (inactive)
GI50 (IGROV-1): > 10 µM (inactive)
GI50 (HOP-62): 8.17 µM (inactive)
GI50 (SK-MEL-28): 2.89 µM (inactive)
GI50 (UACC-257): 3.42 µM (inactive)
GI50 (SNB-19): 12.4 µM (inactive)
GI50 (MOLT-4): 2.3 µM (inactive)
GI50 (EKVX): > 10 µM (inactive)
GI50 (SF-268): 7.05 µM (inactive)
GI50 (Malme-3M): 2.38 µM (inactive)
GI50 (KM12): 3.76 µM (inactive)
GI50 (U-251): 10.9 µM (inactive)
GI50 (SK-MEL-2): 5.18 µM (inactive)
GI50 (OVCAR-3): 1.92 µM (inactive)
GI50 (UO-31): 12.6 µM (inactive)
GI50 (M14): 4.44 µM (inactive)
GI50 (NCI-H460): 3.68 µM (inactive)
GI50 (SF-539): 13.4 µM (inactive)
GI50 (UACC-62): 8.73 µM (inactive)
GI50 (OVCAR-8): 2.95 µM (inactive)
GI50 (A498): 18.4 µM (inactive)
